Laboratory results taken from patent publication US20060014704A1, “Compounds and their preparation for the treatment of Alzheimer's disease by inhibiting beta-amyloid peptide production” (priority 2004, published 2006).
“Also recorded” adds a separate entry of the source.

Columns and labels:
cell viability = assay: Cell viability of treated cells; format: cell-based; settings: up to 100 μM, 8 hour treatment
Protocol: (§1) CHO-APP/PS1 (A) and CHO-APP/ΔE9PS1 (B) cells were treated with the indicated compounds at 50 μM for 8 hrs and the levels of secreted Aβ40 and Aβ42 were determined as described in FIG. 1. […] The PS1-ΔE9 FAD mutation diminished the Aβ42 response to Rk1 treatment (B).
Tables 1-3 Structure of ginsenosides utilized in the study and their effects on Aβ42 generation. They differ at the two or three side chains attached to the common triterpene backbone known as dammarane. The common structure skeleton for each group of ginsenosides is shown in the top panel. Ginsenosides that harbor Aβ42-lowering activity are indicated in the far right column of the tables: Aβ42-lowering activity (“Yes”), no profound effects (“No”), and non-determined (“ND”). Ginsenosides that affected cell viability are indicated as “Cytotoxic.” Abbreviation for carbohydrates are as follows: Glc, D-glucopyranosyl; Ara (pyr), L-arabinopyranosyl; Ara (fur), L-arabinofuranyosyl; Rha, L-rhamnopyranosyl.
Steaming ginseng at high temperature gave rise to additional ginsenosides with enhanced pharmacological activity, including (20S)Rg3, Rk1 and Rg5 (22-25). […] Aβ40 levels were not changed by treatment with any of the ginsenosides tested. The potency of Aβ42-lowering activity was highest with Rk1 and (20S)Rg3. […] These studies provide a structure-activity relationship between the chemical structures of ginsenosides and Aβ42-lowering activity, further providing the basis for designing additional Aβ42-lowering analogues as well as for defining a class of compounds that harbor Aβ42-lowering activity.

[1] = tested on: Aβ40 and Aβ42 production, CHO-APP/PS1 cells; assay: Secreted Aβ ELISA in CHO-APP/PS1 cells (wild-type PS1); format: cell-based, Chinese hamster
Protocol: The effects of Rg5 on the Aβ42 generation were much smaller as compared to Rgk351 and Rk1.
FIG. 10 depicts the effects of native ginsenosides on Aβ42 production. CHO cells stably transfected with human APP695 together with either wild-type (A, CHO-APP/PS1 cells) or ΔE9 FAD mutant (B, CHO-APP/ΔE9PS1 cells) forms of PS1 were used. Cells were treated with the indicated compounds (at 50 μM) for 8 hrs. Levels of secreted Aβ40 and Aβ42 in the medium were determined by ELISA and normalized to intracellular full-length APP. In CHO-APP/PS1 cells, average Aβ amounts in control samples were 320 pM for Aβ40 and 79 pM for Aβ42. The relative levels of Aβ and Aβ42 were normalized to values obtained from non-treated and vehicle-treated cells and are shown as % to control+s.d.). One of three representative experiments are shown.
as §1

[2] = tested on: full-length APP and APP C-terminal fragments, CHO-APP cells; assay: Western blot analysis of APP processing in CHO-APP cells; format: cell-based, Chinese hamster; settings: cell lysates
Excerpt: FIG. 13. depicts an analysis of APP processing after Rk1 treatment. Steady-state levels of full-length APP and APP C-terminal fragments (APP-CTFs) were examined by Western blot analysis using anti-R1 antibody. […] Correlated Aβ42 levels for each sample are shown in the bottom panel.

[3] = tested on: Aβ species, CHO-APP cells; assay: Mass spectrometric analysis of Aβ species produced from CHO-APP cells; format: cell-based, Chinese hamster; settings: mass spectrometry, vs DMSO
Protocol: Note that treatment leads to a decrease in Aβ42 species (1-42), and elevation in both Aβ37 (1-37) and Aβ38 (1-38). Mass spectrometric analysis of Aβ species were performed as previously described (Wang R, Sweeny D, Gandy S E, Sisodia S S. The profile of soluble amyloid β-protein in cultured cell media. J. Bio. Chem. 1996; 271: 31894-31902).

SMILES: C=C(CCC=C(C)C)[C@H]1CC[C@]2(C)[C@@H]1[C@H](O)C[C@@H]1[C@@]3(C)CC[C@H](O[C@@H]4O[C@H](CO)[C@@H](O)[C@H](O)[C@H]4O[C@@H]4O[C@H](CO)[C@@H](O)[C@H](O)[C@H]4O)C(C)(C)[C@@H]3CC[C@]12C [Rk1]
- cell viability (cell viability): not affected
- potency of Aβ42-reducing activity (rank) ([1]; 50 μM, 8 hrs, FIG. 11): Rk1>/=(20S)Rg3>Rg5>(20R)Rg3; also recorded: highest
- Aβ42 levels ([1]; CHO cells co-expressing human APP and wild-type presenilin 1, FIG. 8): reduced the Aβ42 levels
- secretion of Aβ42 ([1]; heat-processing derived ginsenosides, 50 μM, 8 hrs, FIG. 11): selectively lowered the secretion of Aβ42
- APP C-terminal fragments (γ-secretase substrates), steady-state levels [2]: increased accumulation; also recorded: up-regulated
- full-length APP levels [2]: not affected; also recorded: did not affect
- Aβ37 (1-37) [3]: elevation
- Aβ38 (1-38) [3]: elevation
- Aβ42 species (1-42) [3]: decrease
